Like-named read-outs stand apart in the source and are kept apart here.
Key:
[1] = test system: primary multiple myeloma blast cells; assay: FACS cytotoxicity assay, autologous T cell-mediated killing of primary multiple myeloma blast cells; format: cell-based, human; settings: for EC50: read-out: MM Lysis EC50
Protocol: In order to monitor the specific killing of multiple myeloma cells by flow cytometry, bone marrow mononuclear cells (BMMC) from multiple myeloma patients were plated on human stromal cells (HS5) and rested overnight at 37 C. Separately, matching patient peripheral blood mononuclear cells (PBMC) were thawed and cultured in supplemented RPMI media at 1×10^6 cells/mL overnight at 37° C. in order to enrich for lymphocytes by depleting adherent cells. The next day, BMMC were co-incubated with adherent cell-depleted naïve PBMC on stromal cells (HS5) and a serial […] dilution of BCMA×CD3 bispecific or 1-arm CD3 isotype control (starting concentration 66.7 nM) at 37° C. Cells were removed from cell culture plates at day 3, 4 or 7 and analyzed by FACS. For the assessment of specificity of killing, multiple myeloma cells were gated as single, live, CD90 negative (to exclude stromal cells), CD2 negative, CD56 positive. CD45 was low on multiple myeloma cells in most samples except MM455. Percent of live target cells was reported for the calculation of adjusted survival as follows: Adjusted survival=(R1/R2)*100, where R1=% live target cells in the presence of antibody, and R2=% live target cells in the absence of test antibody.
T cells were gated as CD2 positive, CD56 negative and either CD4 or CD8 positive. T cell activation was reported as the percent of CD25+CD4 or CD8 T cells out of total CD4 or CD8 T cells.

[2] = test system: BCMA-expressing NCI-H929 tumors; assay: NCI-H929 + PBMC xenogenic tumor model, immediate treatment, dose response (Example 11); format: in vivo, mouse
Protocol: To determine the in vivo efficacy of anti-BCMA×anti-CD3 bispecific antibodies (Abs), a xenogenic tumor study was performed. Immunodeficient NOD.Cg-Prkdc^scidIl2rg^tm1Wji/SzJ (NSG) mice were subcutaneously implanted with a mixture of 10×10^6 BCMA-expressing NCI-H929 human multiple myeloma tumor cells and 0.5×10^6 human peripheral blood mononuclear cells (PBMC) isolated from a normal, healthy donor. […] The mice were administered these Abs twice per week for a total of seven doses, and tumor growth was assessed over 60 days. While BCMA^+ NCI-H929 tumors grew similarly in the vehicle- and CD3-binding control-treated mice, both anti-BCMA×anti-CD3 Abs that were tested prevented the growth of tumors in a dose-dependent manner in vivo.
Implantation and measurement of xenogenic tumors: NSG mice were subcutaneously implanted with a mixture of 10×10^6 BCMA-expressing NCI-H929 multiple myeloma cells and 0.5×10^6 PBMC derived from a normal, healthy donor. […] The mice were administered Abs twice per week for a total of seven doses. Tumor growth was measured with calipers twice per week for the duration of the experiment.
Calculation of xenogenic tumor growth and inhibition: In order to determine tumor volume by external caliper, the greatest longitudinal diameter (length in mm) and the greatest transverse diameter (width in mm) were determined. Tumor volumes based on caliper measurements were calculated by the formula: Volume (mm^3)=(length×width^2)/2.

[3] = test system: BCMA+ OPM-2-luciferase tumors; assay: OPM-2-luciferase intravenous xenogenic tumor model, BLI (Example 15); format: in vivo, mouse
Protocol: (§1) To determine the in vivo efficacy of anti-BCMA×anti-CD3 bispecific antibodies (Abs), a xenogenic tumor study was performed. On day 0, immunodeficient NOD.Cg-Prkdc^scidIl2rg^tm1Wji/SzJ (NSG) mice were intravenously administered 2×10^6 BCMA^+ OPM-2 human multiple myeloma tumor cells that were engineered to also express firefly luciferase (OPM-2-luciferase cells). On day 10, the mice were intraperitoneally injected with 4×10^6 human peripheral blood mononuclear cells (PBMC) from a normal, healthy donor. […] The mice were administered these Abs twice more on days 25 and 28, for a total of three doses. Tumor growth was assessed through day 61 by measuring tumor bioluminescence (BLI) in anesthetized animals. As a positive control, a group of mice (n=5) was given only OPM-2-luciferase cells, but not PBMC or antibody.
as §1, with “Implantation and measurement” for “To determine the in vivo efficacy”, “of” for “of anti-BCMA×anti-CD3 bispecific antibodies (Abs), a”, “tumors:” for “tumor study was performed.”
Measurement of xenogenic tumor growth: BLI imaging was used to measure tumor burden. Mice were injected IP with 150 mg/kg of the luciferase substrate D-luciferin suspended in PBS. Five minutes after this injection, BLI imaging of the mice was performed under isoflurane anesthesia using the Xenogen IVIS system. Image acquisition was carried out with the field of view at D, subject height of 1.5 cm, and medium binning level with automatic exposure time determined by the Living Image Software. BLI signals were extracted using Living Image software: regions of interest were drawn around each tumor mass and photon intensities were recorded as p/s/cm2/sr.

“REGN5459: anti-BCMA×anti-CD3 bispecific antibody: BCMA HCVR of mAb21581 (SEQ 66), CD3 HCVR of mAb7221G20 (SEQ 98), common LCVR SEQ 82” was tested, and the EC50 ([1]; sample MM2, E:T 1.4, 7 days) was 7.24 nM, the “% MM lysis at 66 nM” value ([1]; sample MM2, newly diagnosed, E:T 1.4, 7 days) was 85% and the EC50 ([1]; sample MM369, E:T 0.3, 3 days) was 0.496 nM. For the same substance, the “% MM lysis at 66 nM” value ([1]; sample MM369, newly diagnosed, E:T 0.3, 3 days) was 94%, the EC50 ([1]; sample MM453, E:T 2.4, 3 days) was 1.19 nM and the “% MM lysis at 66 nM” value ([1]; sample MM453, newly diagnosed, E:T 2.4, 3 days) was 80%. For the same substance, the EC50 ([1]; sample MM455, E:T 0.4, 3 days) was 79.4 nM, the “% MM lysis at 66 nM” value ([1]; sample MM455, progression, treated, E:T 0.4, 3 days) was 52% and the “Average Tumor Size (mm3) ± SEM on Day 4” value ([2]; 0.04 mg/kg) was 33.0 ± 4.4 mm3. The “Average Tumor Size (mm3) ± SEM on Day 7” value ([2]; 0.04 mg/kg) was 8.4 ± 4.0 mm3, the “Average Tumor Size (mm3) ± SEM on Day 12” value ([2]; 0.04 mg/kg) was 0 ± 0 mm3 and the “Average Tumor Size (mm3) ± SEM on Day 19” value ([2]; 0.04 mg/kg) was 23.1 ± 23.1 mm3. The “Average Tumor Size (mm3) ± SEM on Day 22” value ([2]; 0.04 mg/kg) was 69.5 ± 69.5 mm3, the “Average Tumor Size (mm3) ± SEM on Day 26” value ([2]; 0.04 mg/kg) was 156.7 ± 156.7 mm3 and the “Average Tumor Size (mm3) ± SEM on Day 29” value ([2]; 0.04 mg/kg) was 226.6 ± 226.6 mm3. The “Average Tumor Size (mm3) ± SEM on Day 4” value ([2]; 0.4 mg/kg) was 19.6 ± 4.4 mm3, the “Average Tumor Size (mm3) ± SEM on Day 12” value ([2]; 0.4 mg/kg) was 0 ± 0 mm3 and the “Average Tumor Size (mm3) ± SEM on Day 15” value ([2]; 0.4 mg/kg) was 0 ± 0 mm3. The “Average Tumor Size (mm3) ± SEM on Day 19” value ([2]; 0.4 mg/kg) was 0 ± 0 mm3, the “Average Tumor Size (mm3) ± SEM on Day 22” value ([2]; 0.4 mg/kg) was 0 ± 0 mm3 and the “Average Tumor Size (mm3) ± SEM on Day 26” value ([2]; 0.4 mg/kg) was 0 ± 0 mm3. The “Average Tumor Size (mm3) ± SEM on Day 29” value ([2]; 0.4 mg/kg) was 0 ± 0 mm3, the “Average Tumor Size (mm3) ± SEM on Day 34” value ([2]; 0.4 mg/kg) was 0 ± 0 mm3 and the “Average Tumor Size (mm3) ± SEM on Day 39” value ([2]; 0.4 mg/kg) was 0 ± 0 mm3. The “Average Tumor Size (mm3) ± SEM on Day 42” value ([2]; 0.4 mg/kg) was 0 ± 0 mm3, the “Average Tumor Size (mm3) ± SEM on Day 46” value ([2]; 0.4 mg/kg) was 0 ± 0 mm3 and the “Average Tumor Size (mm3) ± SEM on Day 55” value ([2]; 0.4 mg/kg) was 0 ± 0 mm3. The “Average Tumor Size (mm3) ± SEM on Day 60” value ([2]; 0.4 mg/kg) was 0 ± 0 mm3, the “Average Tumor Size (mm3) ± SEM on Day 4” value ([2]; 4 mg/kg) was 21.8 ± 3.4 mm3 and the “Average Tumor Size (mm3) ± SEM on Day 7” value ([2]; 4 mg/kg) was 8.0 ± 4.3 mm3. The “Average Tumor Size (mm3) ± SEM on Day 12” value ([2]; 4 mg/kg) was 1.7 ± 1.7 mm3, the “Average Tumor Size (mm3) ± SEM on Day 15” value ([2]; 4 mg/kg) was 0 ± 0 mm3 and the “Average Tumor Size (mm3) ± SEM on Day 19” value ([2]; 4 mg/kg) was 0 ± 0 mm3. For the same substance, the “Average Tumor Size (mm3) ± SEM on Day 22” value ([2]; 4 mg/kg) was 0 ± 0 mm3, the “Average Tumor Size (mm3) ± SEM on Day 26” value ([2]; 4 mg/kg) was 0 ± 0 mm3 and the “Average Tumor Size (mm3) ± SEM on Day 29” value ([2]; 4 mg/kg) was 0 ± 0 mm3. For the same substance, the “Average Tumor Size (mm3) ± SEM on Day 34” value ([2]; 4 mg/kg) was 0 ± 0 mm3, the “Average Tumor Size (mm3) ± SEM on Day 39” value ([2]; 4 mg/kg) was 0 ± 0 mm3 and the “Average Tumor Size (mm3) ± SEM on Day 42” value ([2]; 4 mg/kg) was 0 ± 0 mm3. For the same substance, the “Average Tumor Size (mm3) ± SEM on Day 46” value ([2]; 4 mg/kg) was 0 ± 0 mm3, the “Average Tumor Size (mm3) ± SEM on Day 55” value ([2]; 4 mg/kg) was 0 ± 0 mm3 and the “Average Tumor Size (mm3) ± SEM on Day 60” value ([2]; 4 mg/kg) was 0 ± 0 mm3. The “Radiance [p/s/cm2^2/sr] 5 days post-implantation (mean ± SEM)” value ([3]; 0.4 mg/kg group, 5 days post-implantation (before first dose on day 21)) was 5.09E+05 ± 3.56E+04 p/s/cm2^2/sr, the “Radiance [p/s/cm2^2/sr] 11 days post-implantation (mean ± SEM)” value ([3]; 0.4 mg/kg group, 11 days post-implantation (before first dose on day 21)) was 6.45E+05 ± 2.39E+04 p/s/cm2^2/sr and the “Radiance [p/s/cm2^2/sr] 20 days post-implantation (mean ± SEM)” value ([3]; 0.4 mg/kg group, 20 days post-implantation (before first dose on day 21)) was 2.13E+06 ± 1.69E+05 p/s/cm2^2/sr. The “tumor burden (in words)” value ([3]; 0.4 mg/kg on days 21, 25 and 28) was “reduced tumor burdens to background levels in the majority of animals”, the “Radiance [p/s/cm2^2/sr] 26 days post-implantation (mean ± SEM)” value ([3]; 0.4 mg/kg, 26 days post-implantation) was 1.28E+06 ± 7.36E+05 p/s/cm2^2/sr and the “Radiance [p/s/cm2^2/sr] 31 days post-implantation (mean ± SEM)” value ([3]; 0.4 mg/kg, 31 days post-implantation) was 1.98E+06 ± 1.36E+06 p/s/cm2^2/sr. For the same substance, the “Radiance [p/s/cm2^2/sr] 34 days post-implantation (mean ± SEM)” value ([3]; 0.4 mg/kg, 34 days post-implantation) was 4.24E+06 ± 3.69E+06 p/s/cm2^2/sr, the “Radiance [p/s/cm2^2/sr] 38 days post-implantation (mean ± SEM)” value ([3]; 0.4 mg/kg, 38 days post-implantation) was 3.21E+06 ± 2.52E+06 p/s/cm2^2/sr and the “Radiance [p/s/cm2^2/sr] 40 days post-implantation (mean ± SEM)” value ([3]; 0.4 mg/kg, 40 days post-implantation) was 3.84E+06 ± 3.34E+06 p/s/cm2^2/sr. For the same substance, the “Radiance [p/s/cm2^2/sr] 47 days post-implantation (mean ± SEM)” value ([3]; 0.4 mg/kg, 47 days post-implantation) was 7.34E+05 ± 2.62E+04 p/s/cm2^2/sr, the “Radiance [p/s/cm2^2/sr] 54 days post-implantation (mean ± SEM)” value ([3]; 0.4 mg/kg, 54 days post-implantation) was 6.41E+05 ± 5.96E+04 p/s/cm2^2/sr and the “Radiance [p/s/cm2^2/sr] 61 days post-implantation (mean ± SEM)” value ([3]; 0.4 mg/kg, 61 days post-implantation) was 6.03E+05 ± 5.29E+04 p/s/cm2^2/sr.
